The values below come from patent publication US20090312373A1, “METHODS FOR THE TREATMENT OF CANCER USING PIPERLONGUMINE AND PIPERLONGUMINE ANALOGS” (The General Hospital Corporation, priority 2008, published 2009).

Series [1] relates to human cancer cell lines. In words: Cell growth inhibition and cell death/apoptosis in a panel of human cancer cell lines. Format: cell-based. An excerpt:
We evaluated the ability of piperlongumine to induce apoptosis in a panel of human cancer cells (>40 human cancer cell lines) including cell lines with both wt and mutant p53 status, including non-functional mutants (See Table 1).

For series [2], the system named is drug-resistant A549 lung cancer cell lines. Description: Tumor cell killing in drug-resistant A549 lung cancer cell lines. Format: cell-based, human. As to the method:
The tumor growth inhibitory effect of piperlongumine was evaluated in a variety of human cancer cell lines. Cells were grown in ˜50-70% confluency and treated with piperlongumine and known anti-cancer agents at various concentrations (0.1-30 μM) and analyzed for cell death or viability by SRB (Sulforhodamine B) staining assay. The SRB assay is a well established assay that is used for the detection of cell death, viability or proliferation in drug screening.
Tumor cell killing by piperlongumine was also tested in drug-resistant A549 lung cancer cell lines and compared to known anti-cancer agents (see FIG. 19).

In series [3] the test system is breast cancer tumors. In words: Breast tumor in mice. Format: in vivo, mouse. As to the method: We tested piperlongumine in colon tumor, breast, melanoma or bladder tumor xenograft-bearing mice to evaluate the anti-tumor effect of piperlongumine. We examined EJ human bladder cancer cell xenografts (non-functional p53) to evaluate anti-tumor effects. A total of 2×10^6 EJ cells or SW480 cells were implanted subcutaneously on opposite site flanks in each of six nude/nude mice in each group. When tumor masses grew to ˜5-10 mm in diameter, piperlongumine was administered intraperitoneally (28 ug per each intraperitoneal administration, total 1.2 mg/kg) every 48 hours for 12 days (6 times total).

Series [4] relates to normal human breast epithelial cells. Description: DNA damage markers in normal human breast epithelial cells. As to conditions: SP2007 10 μM or 20 μM. In kind it is cell-based. From the text: The primary breast epithelial cells obtained from patients undergoing reconstructive plastic surgery.
Series [5] relates to immortalized human breast epithelial cells. Description: DNA damage markers in immortalized human breast epithelial cells. Format: cell-based. As to conditions: taxol 10 nM. An excerpt: The conditions and time of exposure are indicated in the legend of the figure.
For series [6], the system named is EJ bladder carcinoma cells and HCT116 colon carcinoma cells. In words: Cell death in transformed cancer cells. Format: cell-based, human. As to conditions: 2.5 μM and 10 μM.
Series [7] deals with p120ctn/vimentin/N-cadherin complex. Description: Vimentin immunoprecipitation / p120ctn Western blot in EJ cells. In kind it is cell-based, human. The conditions noted are these: 10 μM. Here is the method:
It is well-established that Twist plays a major role in tumor development and metastasis. Thus, we investigated whether piperlongumine (SP2007) mechanistically regulates a key signaling pathway involving a complex of p120ctn/vimentin/N-cadherin which is a Twist target that promotes tumor cell migration and invasion/metastasis. EJ cells were treated with 10 μM piperlongumine or vehicle for 20 hours and cell lysates were subsequently immunoprecipitated by Vimentin antibody (Sigma Aldrich, St. Louis, Mo.) followed by western blot against p120ctn to analyze the association of the p120ctn/vimentin/N-cadherin complex.
EJ cells were treated with piperlongumine (SP2007) (10 μM) for 12 hours. Subsequently the cells were harvested and subjected to immunoprecipitations using vimentin antibodies (Sigma Aldrich) to precipitate the vimentin complex. Western blots were performed for p120 CTN and vimentin. DMSO (D) treated cells were used as control IP experiments.

The test system of series [8] is lung cancer tumors. Description: Lung tumor model in mice. Format: in vivo, mouse.
Series [9] has as its system survival proteins (Bc12, Survivin, XAIP). Description: Exon gene array and Western blot of survival proteins in U2OS and EJ cells. The conditions noted are these: variety of concentrations. Format: cell-based, human. As to the method:
Downstream target genes of piperlongumine (CT-007) were identified using an human exon gene array analysis of U2OS and EJ cancer cell lines (FIG. 12). In addition, the results from the gene array analysis were confirmed by Western blot (FIG. 13; See also Example 12 below).
U2OS cells and EJ cells were exposed to piperlongumine (10 μM) and aliquots of the cells were taken at 6 and 12 hours and lysed to determine the level of Twist expression. […] HCT116 cells (p53-wt cells) were exposed to piperlongumine and aliquots of the cells were taken at 6 and 12 hours and lysed to determine the level of CDIP expression. […] U2OS cells (p53-wt cells) and EJ cells (non-functional p53) were exposed to various concentrations of piperlongumine (piper) and aliquots of the cells were lysed to determine the level of survival protein expression.
In general terms: In western blotting, separated proteins are transferred to a membrane and probed.

Series [10] relates to CDIP. Description: Western blot of CDIP expression in U2OS cells containing wt-p53. In kind it is cell-based, human. As to conditions: 5 μM and 10 μM. Here is the method: Western blot analyses of CDIP expression in human cancer cells containing wt-p53 treated with piperlongumine (SP2007) (5 μM and 10 μM) is shown in FIG. 38. Beta-actin expression was used as a loading control.

“Also recorded” adds a separate entry of the source.

`COc1cc(/C=C/C(=O)N2CCC=CC2=O)cc(OC)c1OC` [piperlongumine, N-(3,4,5,-trimethoxycinnamoyl)-Δ^3-piperidine-2-one]: the “sub-G1 apoptotic population of cells” value in series [1] (HCT116 cells) was “increased”. Further, the “potencies for tumor cell growth inhibition and cell death/apoptosis” value in series [1] (various human cancer cells, regardless of p53 status) was in the range of 2.5 to 20 µM. For the same compound, the “tumor cell growth inhibition compared to other anti-cancer drugs” value in [2] is on record as “more effective”. Also, the “killing of breast cancer tumors” value in series [3] is on record as “effective killing”. Besides, the “phosphorylated gamma-H2AX, p53 and p21” value in series [4] was “does not affect”. Also, in [5], the “phosphorylated gamma-H2AX and p53” value was “does not result in the induction”. The “cell death in transformed cancer cells” value in series [6] is on record as “induced cell death”. In addition, the “p120 in the complex precipitated with vimentin” value in series [7] (12 hours) was “p120 was not in the complex”. Also, the “association of the p120ctn/vimentin/N-cadherin complex” value in series [7] (20 hours) is listed as “dissociation”. In addition, in series [8], the “killing of lung cancer tumors” value was “effective killing”. Besides, in [9], the “levels of expression of survival proteins” value was “significantly repressed; also recorded: inhibits the expression of survival proteins”. In series [10], the CDIP expression result is listed as “induces CDIP”.
